Reference: US20240189389A1, “DRUG WITH PROLONGED ANALGESIC ACTION” (priority 2020, published 2024)

Tests used:
[1] = system: ICR male white mice; assay: Formalin test on mice; type: in vivo; conditions: oral, 100 mg/kg (positive control)
Protocol: Tests are performed on ICR male white mice of 20-30 g body weight. Mice are divided into 4 groups (a control one and experimental ones) of 9 mice each. The tested HCRG21 peptide is dissolved in a sterile physiological saline solution and is administered intramuscularly at the doses of 0.1 and 1.0 mg/kg. Control animals receive the equivalent volume of sterile physiological saline solution. Ibuprofen at the dose of 100 mg/kg is used as a positive control and is administered to animals orally. 60 minutes later all mice are injected in a hinder paw pad with 20 μl of 2.5% formalin solution. Patterns of pain response are recorded immediately after the injection (a number of paw licking episodes and a hind paw withdrawal time) according to the following schedule:
1st period (acute): for 20 min after the injection patterns are recorded per 1 min with 6-minute intervals (0, 6, 12 and 18 min);
2nd period (tonic): 30 min after the formalin injection patterns are recorded for 20 min per 1 min with 6-minute intervals (30, 36, 42, 48 min).
The analgesic effect is evaluated by the decrease of the duration of pain response patterns relative to control animals (FIG. 9). The results are statistically processed, statistical significance of differences of the results of control and experimental group is determined using the Student's test.

[2] = reduced only in part with repeated dosing; cited from earlier work
[3] = phase I clinical trial data; cited from earlier work
[4] = molecular target: T1, TRPV1 (Homo sapiens, UniProt Q8NER1); conditions: high dose (400 mg); cited from earlier work
T1 construct: host or cells: human subjects (in vivo)
T1 sequence (Q8NER1 whole entry): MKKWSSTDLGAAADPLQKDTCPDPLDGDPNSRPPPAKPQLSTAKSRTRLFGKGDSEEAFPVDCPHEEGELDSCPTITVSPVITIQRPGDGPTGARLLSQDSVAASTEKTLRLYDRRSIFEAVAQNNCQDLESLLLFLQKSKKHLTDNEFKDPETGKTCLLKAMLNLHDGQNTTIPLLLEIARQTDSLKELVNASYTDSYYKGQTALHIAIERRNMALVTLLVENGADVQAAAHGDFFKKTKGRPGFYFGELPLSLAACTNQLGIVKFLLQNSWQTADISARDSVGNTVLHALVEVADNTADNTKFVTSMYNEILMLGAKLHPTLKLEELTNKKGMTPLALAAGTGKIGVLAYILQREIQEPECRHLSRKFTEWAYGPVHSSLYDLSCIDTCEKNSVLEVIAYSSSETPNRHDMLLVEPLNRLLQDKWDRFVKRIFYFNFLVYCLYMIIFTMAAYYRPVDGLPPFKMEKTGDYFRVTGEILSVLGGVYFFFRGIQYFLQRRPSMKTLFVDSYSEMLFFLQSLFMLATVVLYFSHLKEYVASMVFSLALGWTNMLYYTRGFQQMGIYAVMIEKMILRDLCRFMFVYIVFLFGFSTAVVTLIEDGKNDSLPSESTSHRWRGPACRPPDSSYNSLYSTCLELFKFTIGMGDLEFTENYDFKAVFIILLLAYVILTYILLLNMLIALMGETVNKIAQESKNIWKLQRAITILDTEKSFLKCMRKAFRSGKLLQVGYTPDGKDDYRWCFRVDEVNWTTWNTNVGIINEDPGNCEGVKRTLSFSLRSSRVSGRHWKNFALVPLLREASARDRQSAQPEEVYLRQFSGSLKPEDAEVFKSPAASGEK

With CC(C)Cc1ccc(C(C)C(=O)O)cc1 (stereo not shown) [Ibuprofen, ibuprofen] the “analgesic properties compared with HCRG21” value [1] was “concedes much to the HCRG21 peptide”.

In the case of CC(=O)Nc1nc2c(Oc3cc(-c4ccc(C(F)(F)F)cc4)ncn3)cccc2s1 [AMG-517], the “temperature increase in humans” value [2] is listed as “high and steady temperature increase”.

In the case of O=C(Nc1ccccc1Br)N[C@@H]1CCN(c2ccc(C(F)(F)F)cn2)C1 [SB-705498], the elimination half-life [3] is given as 35 to 93 h and the “pharmacodynamic activity in the reduction of inflammation induced by heat injuries, UV radiation and capsaicin” value [4] is given as “evidences a target pharmacodynamic activity”.
